{"source": "patent US20220133687A1", "about": "“METHODS OF TREATING AND PREVENTING NEURODEGENERATIVE DISEASES WITH HGF ACTIVATING COMPOUNDS” (Synaptogenix, Inc., priority 2020, published 2022)", "key": {"NCI 60 cell line screen": {"system": "NCI 60 cell line screen", "conditions": "cited from earlier work"}, "[1]": {"system": "squamous cell carcinoma and melanoma", "conditions": "used topically; cited from earlier work"}, "PKC [2]": {"molecular_target": "T1, PKC", "T1 construct": "rows headed: Ki for PKC", "conditions": "competition with [3H] phorbol dibutyrate; cited from earlier work"}, "PKC [3]": {"system": "PKC", "conditions": "cited from earlier work"}, "BDNF": {"system": "BDNF", "assay": "Mouse dosing study: brain BDNF levels", "assay_type": "in vivo", "conditions": "mice", "text": "(§1) The following metrics may be used to evaluate dosing regimens: induction of brain postsynaptic anchoring protein PSD-95, upregulation of BDNF levels in brain, upregulation of HGF levels in brain, minimal downregulation of PKC-c levels, and elevation of brain and plasma concentrations of bryostatin or other HGF activating compound. Groups of 2-3 mice may be formed and housed in an approved research animal facility. Water may be given ad libitum. A first study involves three groups of mice with animals in each group dosed weekly for 1, 2, 3, or 6 consecutive weeks. Each group has its own control group containing the same number of mice. For example, mice in the first, second and third groups may receive an intravenous (i.v.) injection of 10 μg/m^2, 15 μg/m^2, and 25 μg/m^2 dose of bryostatin or other HGF activating compound respectively. For each dose, mice in that group may receive a single injection of bryostatin or other HGF activating compound weekly for a predetermined number of consecutive weeks. Following dosing, mice are sacrificed and the blood and brain of each animal is collected for further analysis.\nAt a dose of 25 μg/m^2, the levels of brain BDNF may increase with each successive week of dosing, that is, brain BDNF levels may be greatest after three consecutive weeks of dosing. […]"}, "PSD-95": {"system": "PSD-95", "assay": "Mouse dosing study: PSD-95 levels", "assay_type": "in vivo", "conditions": "mice, 25 μg/m^2 i.v. once per week, after three weeks", "text": "as §1\nA similar observation can be made concerning the levels of the synaptogenesis marker PSD-95. […] Continued weekly dosing at 10 μg/m^2 for another three consecutive weeks (total of 6 consecutive weeks) may result in downregulation."}, "PKC-ε": {"system": "PKC-ε", "assay": "Mouse dosing study: brain PKC-ε downregulation", "assay_type": "in vivo", "conditions": "mice, 25 μg/m^2 three consecutive weekly doses vs lower doses", "text": "as §1\nA similar observation can be made concerning the levels of the synaptogenesis marker PSD-95. […] Continued weekly dosing at 10 μg/m^2 for another three consecutive weeks (total of 6 consecutive weeks) may result in downregulation. […]"}, "protein kinase C": {"molecular_target": "protein kinase C", "conditions": "(−)-enantiomer; read-out: potency EC50; cited from earlier work"}}, "note": "Like-named read-outs stand apart in the source and are kept apart here.", "data": [{"smiles": "CC1=CC[C@H](C)C(C)(C)[C@@H]1/C=C/C(C)=C/CC[C@@]1(CO)[C@H](CCCO)/C(=C(/C)C=O)CC[C@]1(C)O", "note": "[Iripallidal]", "values": [{"measurement": "GI50 (concentration required to inhibit growth by 50%)", "setting": "NCI 60 cell line screen", "value": "micromolar to nanomolar range"}]}, {"smiles": "C/C=C(/C)C(=O)O[C@H]1C(C)=C[C@]23C(=O)[C@@H](C=C(CO)[C@@H](O)[C@]12O)[C@H]1[C@@H](C[C@H]3C)C1(C)C", "note": "[Ingenol-3-angelate]", "values": [{"measurement": "antitumor activity", "setting": "[1]", "value": "exhibits antitumor activity"}]}, {"smiles": "CC1=C[C@]23C(=O)[C@@H](C=C(COC(=O)c4ccccc4)[C@@H](O)[C@]2(O)[C@H]1OC(=O)c1ccccc1)[C@H]1[C@@H](C[C@H]3C)C1(C)C", "note": "[Ingenol 3,20-dibenzoate]", "values": [{"measurement": "Ki", "setting": "PKC [2]", "value": 240, "unit": "nM"}]}, {"smiles": "CCCCCCCC(=O)O[C@H]1/C(=C/C(=O)OC)C[C@H]2C[C@H](CO)OC(=O)C[C@H](O)C[C@@H]3CCC[C@H](C[C@@H]4CCO[C@H](/C=C/C(C)(C)[C@]1(O)O2)O4)O3", "note": "[Analog 1]", "values": [{"measurement": "affinity for PKC (in words)", "setting": "PKC [3]", "value": "highest affinity for PKC"}, {"measurement": "Ki", "setting": "PKC [3]; read-out: PKC Affin", "value": 0.25, "unit": "nM"}]}, {"smiles": "CCC/C=C/C=C/C(=O)O[C@H]1/C(=C/C(=O)OC)C[C@H]2C[C@H]([C@@H](C)O)OC(=O)C[C@H](O)C[C@@H]3C[C@H](OC(C)=O)C(C)(C)[C@](O)(C[C@@H]4C/C(=C/C(=O)OC)C[C@H](/C=C/C(C)(C)[C@]1(O)O2)O4)O3", "note": "[Bryostatin-1]", "values": [{"measurement": "levels of brain BDNF", "setting": "BDNF; 15 μg/m^2 weekly for three consecutive weeks", "value": "some increase"}, {"measurement": "levels of brain BDNF", "setting": "BDNF; 25 μg/m^2 weekly", "value": "maximum increase"}, {"measurement": "amounts of PSD-95 in brain and blood samples", "setting": "PSD-95", "value": "higher amounts of PSD-95"}, {"measurement": "PKC-ε downregulation in brain", "setting": "PKC-ε", "value": "may not produce more PKC-c downregulation"}]}, {"smiles": "CCCCCCCCc1ccc2c3c(c[nH]c13)C[C@@H](CO)NC(=O)[C@H](C(C)C)N2C", "note": "[Octylindolactam V]", "values": [{"measurement": "EC50", "setting": "protein kinase C", "value": 29, "unit": "nM"}]}]}
